Reference: PubChem BioAssay (NCI)
Where “and” joins values, the source holds several entries; their conditions need not be identical. Equal values may be shown once.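 In this assay, cells in 96-well plates receive the compound at five concentrations for 48 hours. Endpoints are linearly interpolated between the surrounding concentrations. Abbreviation: GI50, concentration required for 50% inhibition of growth. At the TGI there is no net growth.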

What was measured:
Experiment in all cases: inhibition of tumour cell growth, NCI panel, 48 h
CAKI-1 renal = system: CAKI-1 renal
HCC-2998 colon = system: HCC-2998 colon
IGROV1 ovarian = system: IGROV1 ovarian
K-562 leukemia = system: K-562 leukemia
PC-3 prostate = system: PC-3 prostate
RXF 393 renal = system: RXF 393 renal
SF-268 CNS = system: SF-268 CNS
SF-539 CNS = system: SF-539 CNS
U251 CNS = system: U251 CNS
UACC-257 melanoma = system: UACC-257 melanoma

CC(=O)Nc1ccc2c(C)c3c(nc2n1)[nH]c1ccccc13
TGI (CAKI-1 renal): 96.2 µM
TGI (HCC-2998 colon): 76.1 µM
TGI (IGROV1 ovarian): 71.4 µM
TGI (K-562 leukemia): > 100 µM
TGI (PC-3 prostate): > 100 µM
TGI (RXF 393 renal): > 100 µM
TGI (SF-268 CNS): > 100 µM
TGI (SF-539 CNS): > 100 µM
TGI (U251 CNS): > 100 µM
TGI (UACC-257 melanoma): > 100 µM

COC1CC(N)(c2ccccc2)C(O)C(C)O1 (stereo not given)
TGI (CAKI-1 renal): > 100 µM
TGI (HCC-2998 colon): > 100 µM
TGI (IGROV1 ovarian): > 100 µM
TGI (K-562 leukemia): > 100 µM
TGI (PC-3 prostate): > 100 µM
TGI (RXF 393 renal): > 100 µM
TGI (SF-268 CNS): > 100 µM
TGI (SF-539 CNS): > 100 µM
TGI (U251 CNS): > 100 µM
TGI (UACC-257 melanoma): > 100 µM

Cc1ccc2nc(SCC(=O)N=Nc3c(O)[nH]c4ccccc34)n(-c3ccccc3)c(=O)c2c1
TGI (CAKI-1 renal): 43.3 µM
TGI (HCC-2998 colon): 28.6 µM
TGI (K-562 leukemia): 61.9 µM
TGI (PC-3 prostate): 36.1 µM
TGI (RXF 393 renal): 27 µM
TGI (SF-268 CNS): 26.6 µM
TGI (SF-539 CNS): 19 µM
TGI (U251 CNS): 24.8 µM
TGI (UACC-257 melanoma): 55.7 µM

COc1cccc(N2C(=O)CSC2c2cccc(Oc3ccccc3)c2)c1 (stereo not given)
TGI (CAKI-1 renal): 14.3 µM
TGI (HCC-2998 colon): 7.23 µM
TGI (K-562 leukemia): 11.4 µM
TGI (PC-3 prostate): > 100 µM
TGI (RXF 393 renal): 39.1 µM
TGI (SF-268 CNS): 42.9 µM
TGI (SF-539 CNS): 15.9 µM
TGI (U251 CNS): 19.3 µM
TGI (UACC-257 melanoma): 12.3 µM

COC(=O)Cc1cc(O)c2c(c1O)C(=O)c1ccccc1C2=O
TGI (CAKI-1 renal): > 100 µM
TGI (HCC-2998 colon): > 100 µM
TGI (IGROV1 ovarian): > 100 µM
TGI (K-562 leukemia): > 100 µM
TGI (PC-3 prostate): > 100 µM
TGI (RXF 393 renal): 63.7 µM
TGI (SF-268 CNS): > 100 µM
TGI (SF-539 CNS): > 100 µM
TGI (U251 CNS): > 93.2 µM
TGI (UACC-257 melanoma): > 100 µM

COc1ccc(N2C(=O)C3c4[nH]c5ccc(OCc6ccccc6)cc5c4C4CCC(c5ccccc5)CC4C3C2=O)cc1 (stereo not given)
TGI (CAKI-1 renal): 25.8 µM
TGI (HCC-2998 colon): > 100 µM
TGI (IGROV1 ovarian): > 74.3 µM
TGI (K-562 leukemia): 12 µM
TGI (PC-3 prostate): 96.5 µM
TGI (RXF 393 renal): 21.1 µM
TGI (SF-268 CNS): 37.4 µM
TGI (SF-539 CNS): 7.17 µM
TGI (U251 CNS): 11.2 µM
TGI (UACC-257 melanoma): > 100 µM

O=C(O)CCc1nc2c(n1-c1ccccc1)C(=O)c1ccccc1C2=O
TGI (CAKI-1 renal): > 100 µM
TGI (HCC-2998 colon): > 100 µM
TGI (IGROV1 ovarian): > 100 µM
TGI (K-562 leukemia): > 100 µM
TGI (PC-3 prostate): > 100 µM
TGI (RXF 393 renal): > 100 µM
TGI (SF-268 CNS): > 100 µM
TGI (SF-539 CNS): > 100 µM
TGI (U251 CNS): > 100 µM
TGI (UACC-257 melanoma): > 100 µM

O=c1[nH]/c(=C/c2ccc(OCc3ccccc3)cn2)c(=O)[nH]/c1=C/c1ccccc1
TGI (CAKI-1 renal): > 100 µM
TGI (HCC-2998 colon): 0.521 µM
TGI (IGROV1 ovarian): > 24.6 µM
TGI (K-562 leukemia): > 100 µM
TGI (PC-3 prostate): > 100 µM
TGI (RXF 393 renal): > 100 µM
TGI (SF-268 CNS): > 100 µM
TGI (SF-539 CNS): > 67 µM
TGI (U251 CNS): > 91.6 µM
TGI (UACC-257 melanoma): > 100 µM

C=CCOC(=O)N1c2ccc(O[Si](C)(C)C(C)(C)C)cc2[C@@]23O[C@@]24[C@@H]1C#C/C=C\C#C[C@]3(O)C(OC)(OC)C[C@@H]4C
TGI (CAKI-1 renal): > 100 µM
TGI (HCC-2998 colon): > 100 µM
TGI (IGROV1 ovarian): > 100 µM
TGI (K-562 leukemia): > 100 µM
TGI (PC-3 prostate): > 100 µM
TGI (RXF 393 renal): > 100 µM
TGI (SF-268 CNS): > 100 µM
TGI (SF-539 CNS): > 100 µM
TGI (U251 CNS): > 100 µM
TGI (UACC-257 melanoma): > 100 µM

N#Cc1c(-c2ccc(Cl)cc2)c2c(nn3c4ccc5ccccc5c4nnc23)[nH]c1=O
TGI (CAKI-1 renal): 8.5 µM
TGI (HCC-2998 colon): 8.87 µM
TGI (IGROV1 ovarian): 4.06 µM
TGI (K-562 leukemia): > 69.6 µM
TGI (PC-3 prostate): 7 µM
TGI (RXF 393 renal): 3.72 µM
TGI (SF-268 CNS): 8.26 µM
TGI (SF-539 CNS): 3.96 µM
TGI (U251 CNS): 5.38 µM
TGI (UACC-257 melanoma): 18.8 µM

C=CCn1c(=O)c(C)cn(COCCO)c1=O
TGI (CAKI-1 renal): > 100 µM
TGI (HCC-2998 colon): > 100 µM
TGI (IGROV1 ovarian): > 100 µM
TGI (K-562 leukemia): > 100 µM
TGI (PC-3 prostate): > 100 µM
TGI (RXF 393 renal): > 100 µM
TGI (SF-268 CNS): > 100 µM
TGI (SF-539 CNS): > 100 µM
TGI (U251 CNS): > 100 µM
TGI (UACC-257 melanoma): > 100 µM

OC1[C@@H]2[C@@H](O)CCCN2C[C@@H](O)[C@H]1O (stereo not given in full)
TGI (CAKI-1 renal): > 100 µM
TGI (HCC-2998 colon): > 100 µM
TGI (IGROV1 ovarian): > 100 µM
TGI (K-562 leukemia): > 100 µM
TGI (PC-3 prostate): > 100 µM
TGI (RXF 393 renal): > 100 µM
TGI (SF-268 CNS): > 100 µM
TGI (SF-539 CNS): > 100 µM
TGI (U251 CNS): > 100 µM
TGI (UACC-257 melanoma): > 100 µM

CC(=O)c1c(-c2cccc3ccccc23)c(C#N)c(=S)n(C2OC(CO)C(O)C(O)C2O)c1C (stereo not given)
TGI (CAKI-1 renal): > 100 µM
TGI (HCC-2998 colon): > 100 µM
TGI (IGROV1 ovarian): > 100 µM
TGI (K-562 leukemia): > 100 µM
TGI (PC-3 prostate): > 100 µM
TGI (RXF 393 renal): > 100 µM
TGI (SF-268 CNS): > 100 µM
GI50 (SF-539 CNS): > 100 µM and 39.6 µM
TGI (SF-539 CNS): > 100 µM
GI50 (U251 CNS): > 100 µM and 48.9 µM
TGI (U251 CNS): > 100 µM
TGI (UACC-257 melanoma): > 100 µM

Nc1n(CC(=O)c2ccccc2)nc2sc(-c3ccccc3)n[n+]12
TGI (CAKI-1 renal): 91.7 µM
TGI (HCC-2998 colon): 25 µM
TGI (IGROV1 ovarian): 56.6 µM
TGI (K-562 leukemia): > 100 µM
TGI (PC-3 prostate): 78.8 µM
TGI (RXF 393 renal): 25.1 µM
TGI (SF-268 CNS): 62.5 µM
TGI (SF-539 CNS): 25.3 µM
TGI (U251 CNS): 34.2 µM
TGI (UACC-257 melanoma): > 100 µM

CC(C)/C(Cl)=N/OC(=O)Nc1ccc(Br)cc1
TGI (CAKI-1 renal): 3.2 µM
TGI (HCC-2998 colon): 29.4 µM
TGI (IGROV1 ovarian): 27.1 µM
TGI (PC-3 prostate): 26.7 µM
TGI (RXF 393 renal): 23.9 µM
TGI (SF-268 CNS): 34 µM
TGI (SF-539 CNS): 29.1 µM
TGI (U251 CNS): 37.3 µM
TGI (UACC-257 melanoma): 28.7 µM

[N-]=[N+]=Nc1c(Cc2ccccc2)c(Cl)nc2ccccc12
TGI (CAKI-1 renal): 92.3 µM
TGI (HCC-2998 colon): > 100 µM
TGI (IGROV1 ovarian): > 100 µM
TGI (K-562 leukemia): 83.7 µM
TGI (PC-3 prostate): > 100 µM
TGI (RXF 393 renal): 39.6 µM
TGI (SF-268 CNS): > 100 µM
TGI (SF-539 CNS): 41.3 µM
TGI (UACC-257 melanoma): > 100 µM

Cc1ccc(S(=O)(=O)NC(=O)Nc2nnc(S(N)(=O)=O)s2)cc1
TGI (CAKI-1 renal): > 100 µM
TGI (HCC-2998 colon): > 100 µM
TGI (K-562 leukemia): > 100 µM
TGI (PC-3 prostate): > 100 µM
TGI (RXF 393 renal): > 100 µM
TGI (SF-268 CNS): > 100 µM
TGI (SF-539 CNS): > 100 µM
TGI (U251 CNS): > 100 µM

CN(C)CC(O)c1ccc(Cl)c2ccccc12 (stereo not given)
TGI (CAKI-1 renal): > 96.6 µM
TGI (HCC-2998 colon): 29.9 µM
TGI (IGROV1 ovarian): > 85.7 µM
TGI (PC-3 prostate): > 72.3 µM
TGI (RXF 393 renal): > 64.9 µM
TGI (SF-268 CNS): > 100 µM
TGI (SF-539 CNS): > 100 µM
TGI (U251 CNS): > 90.6 µM
TGI (UACC-257 melanoma): 38.2 µM
